Measurements as given in patent publication US11236129B2, “IL-17A binding peptides and medical uses thereof” (Dompe' Farmaceutici S.P.A., priority 2018, dated 2022).
Entries after “also recorded” stand apart in the source; their conditions may differ. Where two headings read alike, the source gives them in different places. Residues, ends and D or L forms follow the SMILES beside them.

Tests used:
[1] = Permeability test across stratified human corneal epithelial cells; assay type: in vitro ADME
Procedure: (§1) The objective of this study was to evaluate the apparent permeability coefficient (Papp) value of the peptides across stratified human corneal epithelial cells. All peptides were tested at 50 μM in duplicate.
(§2) In particular, human corneal epithelial cells (hCEPIC) were stratified on Transwell cell culture inserts (Corning, N.Y., USA). The permeation experiments were performed taking samples from receiver chambers at 5, 30, 60 minutes time points and from donor chambers at the same time points. Each aliquot collected was analyzed by HPLC instrument (Knauer) equipped with C18 Vertex Plus Column (Knauer) thermostatically controlled at 40° C. The rate (apparent permeability coefficient, Papp) of the study compounds was calculated and compared to the Papp values of the low and high permeability markers, 6-carboxyfluorescein and Rhodamine B, respectively.
(§3) The apparent permeability coefficient (Papp) was calculated according to Equation: Papp=(I/A*C0)(dM/dt)
(§4) where dM/dt is the flux (nanomoles per second) across the cell layers;
(§5) A (square centimeters) is the exposed surface area of the insert membrane;
(§6) C0 is the initial drug concentration (micromolar) in the donor compartment at t=0 (Xiang et al., Drug Metab Dispos. 2009 May; 37(5):992-8.

[2] = Isoelectric point, log D and log P (SiriusT3); assay type: physicochemical; conditions: for IP (isoelectric point): 25±1° C., 0.15 M KCl
[3] = assay type: physicochemical; conditions: pH 7.8
How it was run: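 Peptides dissolved in phosphate buffer pH 7.8 as 10 mM stocks (more dilute for less soluble ones) and stored at 25 °C. Content measured by reversed-phase UHPLC (C18, 0.5% formic acid water/acetonitrile gradient, DAD 220-400 nm, ESI-MS ion trap) after 1:100 dilution to 100 μM, against 100 μM standards, at T0, 3 days and 1 week.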

mouse IL-17A = molecular target: T1, mouse IL-17A (Mus musculus, UniProt Q62386); assay: Peptide-IL-17A affinity test (SPR); assay type: binding
T1 sequence (Q62386 26-158): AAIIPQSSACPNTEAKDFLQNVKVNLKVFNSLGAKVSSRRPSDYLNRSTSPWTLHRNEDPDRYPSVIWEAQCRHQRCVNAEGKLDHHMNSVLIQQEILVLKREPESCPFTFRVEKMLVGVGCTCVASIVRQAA
Procedure: The peptide of the prior art HAP (SEQ ID NO:1) and peptide of SEQ ID NO:2 were tested for affinity for mIL-17A, as described below. For the immobilization of mouse IL-17A protein, amine coupling chemistry was used. […] Covalent immobilization of mIL17 results in stable attachment of 3000 RU of ligand to the surface. […] The molecules were diluted at different concentrations (from 62.5 to 1000 nM) in HBS-EP buffer and injected on the sensorchip for 4 minutes and allowed to dissociate for 5 minutes. After each run, the sensorchip was regenerated by 2 M NaCl injection. Based on the sensorgrams (FIG. 1, panel A) and using the BIAevaluation software, the Scatchard analysis of the RU values at equilibrium allowed to determine an affinity constant as a function of the analyte concentration in solution (FIG. 6, panel B).

[4] = system: human corneal epithelial cells (hCEPIC); assay: Permeability test across stratified human corneal epithelial cells; assay type: in vitro ADME
Procedure: as §1, §2, §3, §4, §5, §6

[5] = molecular target: IL-17RA/IL17RC dimerization induced by IL-17A (Homo sapiens, UniProt Q16552); assay: IL-17RA/IL17RC dimerization assay in response to IL-17A (PathHunter Cytokine Receptor Assay); assay type: cell-based; conditions: IL-17A at EC80; read-out: IC50 in IL-17RA/IL7RC dimerization assay
IL-17RA/IL17RC dimerization induced by IL-17A, sequence (Q16552 24-155): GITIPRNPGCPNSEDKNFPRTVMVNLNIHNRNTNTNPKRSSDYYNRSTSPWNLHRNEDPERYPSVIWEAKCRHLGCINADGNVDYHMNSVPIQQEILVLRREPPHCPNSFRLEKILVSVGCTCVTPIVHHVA
How it was run: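 PathHunter cells with IL-17RA and IL-17RC tagged for β-galactosidase complementation were preincubated 60 min with peptide (1% vehicle). IL-17A was then added at EC80 for 6–16 h at 37 °C, and chemiluminescence was read. Inhibition is relative to the EC80 and vehicle controls.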

[6] = system: Immortalized Human Corneal Epithelial cell line (I-HCEC); assay: In vitro evaluation of expression of inflammatory cytokines in I-HCEC (real-time PCR); assay type: cell-based; conditions: 0.01-500 μM, 24 hours
Procedure: The tests were conducted on Immortalized Human Corneal Epithelial cell line (I-HCEC) (Innoprot, Bizkaia, Spain, Ref. P10871). […] The cell medium was supplemented with 5% Fetal Bovine Serum (FBS). Cells were seeded at 320000 cells/well 6 plate and 15000 cells/well 96 plate. […] The experiments were performed three times, each time in duplicate. The used probes from Thermo Fisher Scientific are: human CXCL8 (Hs00174103_m1), human IL6 (Hs00174131_m1), human TNFα (Hs99999043_m1). As housekeeping gene was used GAPDH (probe Hs02758991_g1). […] Untreated I-HCEC were used as negative control (Vehicle).

[7] = system: human differentiated TH17 cells; assay: Cytokine and metalloproteinase secretion by human differentiated and activated TH17 cells; assay type: cell-based; conditions: 24 h after stimulation, supernatant
Excerpt: To evaluate the effect of the peptides of the invention on the target cells responsible for inflammation in ophtalmic or dermatological pathologies, we tested the ability of the peptide of SEQ ID NO: 18 to inhibit in vitro pro-inflammatory cytokines and metalloproteinases secretion by human Th17 cells.
Human primary CD4 T-cells were differentiated into Th17 cells in vitro by culturing the cells in Th17 differentiation medium for 10 days. In details, purified human peripheral blood CD4 T-cells were cultured in Th-17 differentiation medium (CellXVivo Human Th17, Tocris) per manufacturer's instructions. Briefly: 96-well tissue culture plates were coated with anti-CD3 and CD28 agonistic antibodies. Cells were counted via trypan blue exclusion and suspended at a concentration of 1E5 cells/ml in Th-17 differentiation medium. 0.2 mL of this suspension was plated into individual wells of a 96-well plate. Cells were incubated at 37° C. with 5% CO2 for 10 days, with media replaced as needed. Following 10-day Cell Differentiation, the peptides synthetized in Example 1, such as the peptide of Seq. ID No 18, were diluted to the appropriate concentration in CGM (cell growth medium, XVivo-15, Lonza). Cell plate was centrifuged at 300×g for 5 min, and Th17 differentiation medium was removed.
Following differentiation, the cells were stimulated with both an activation cocktail containing Phorbol 12-myristate 13-acetate and lonomycin in the presence of varying concentrations of test articles.
(§7) At 24 h following stimulation, culture supernatants were analyzed for expression of IL-17, IL-6, IL-23, MMP3 and examined for viability using the fluorescence viability dye, Alamar blue. The CD4 cells secreted high levels of IL-17A in response to stimulation with an activation cocktail, indicating successful differentiation into Th17 cells. Additionally, stimulated cells secreted IL-6, IL23 and MMP3.
Supernatant was removed and replaced with 200 μL of diluted peptide or vehicle (CGM+DMSO diluted as with TI concentration) in appropriate groups. Cells were incubated with peptide test items for 1 hour before stimulation. The following stimulation solutions were generated: 10× Cell Activation Cocktail: Diluted from 500× to 10× working solution in CGM. 22 μL of appropriate stimulants were added to wells 1 hr after TI addition. Finally, 25 μL of Alamar blue reagent (10×) was added to each well 20 hours after stimulant (4 hrs prior to 24 hr serum collection) to determine cell viability. 24 hrs After Stimulant, Alamar blue fluorescence was measured per manufacturer's instructions. […] Expression levels of IL-6, IL-17, and IL-23 as well as MMP3 in 24 hour stimulated culture supernatants was evaluated using a Luminex Multiplex Platform on a MAGPIX instrument.

human TH17 cells = assay: Viability of human TH17 cells (Alamar blue); assay type: cell-based
Procedure: as §7
Supernatant was removed and replaced with 200 μL of diluted peptide or vehicle (CGM+DMSO diluted as with TI concentration) in appropriate groups. Cells were incubated with peptide test items for 1 hour before stimulation. The following stimulation solutions were generated: 10× Cell Activation Cocktail: Diluted from 500× to 10× working solution in CGM. 22 μL of appropriate stimulants were added to wells 1 hr after TI addition. Finally, 25 μL of Alamar blue reagent (10×) was added to each well 20 hours after stimulant (4 hrs prior to 24 hr serum collection) to determine cell viability. 24 hrs After Stimulant, Alamar blue fluorescence was measured per manufacturer's instructions. Remaining Supernatants were collected for subsequent multiplex protein analyses. Expression levels of IL-6, IL-17, and IL-23 as well as MMP3 in 24 hour stimulated culture supernatants was evaluated using a Luminex Multiplex Platform on a MAGPIX instrument.

IL-17A = molecular target: T2, IL-17A (Homo sapiens, UniProt Q16552); conditions: psoriasis, clinical trials; cited from earlier work
T2 construct: host or cells: psoriasis patients (endogenous IL-17A)
T2 sequence (Q16552 24-155): as above

[8] = octanol/ISA water, read-out: logP
[9] = pH 7.4, pH 7.4, octanol/ISA water, read-out: Log D (7.4)

`CC[C@H](C)[C@H](NC(C)=O)C(=O)N[C@@H](Cc1c[nH]cn1)C(=O)N[C@H](C(=O)N[C@H](C(=O)N[C@H](C(=O)N1CCC[C@H]1C(=O)N[C@@H](C)C(=O)N[C@@H](CC(=O)O)C(=O)N[C@@H](CC(C)C)C(=O)N[C@@H](Cc1c[nH]c2ccccc12)C(=O)N[C@@H](CC(=O)O)C(=O)N[C@@H](Cc1c[nH]c2ccccc12)C(=O)N[C@H](C(=O)N[C@@H](CC(N)=O)C(=O)N[C@@H](CCCCN)C(N)=O)[C@@H](C)CC)[C@@H](C)CC)[C@@H](C)O)C(C)C` [SEQ ID NO: 1, reference compound] (Ac-IHVTIPADLWDWINK-NH2) gave a Papp ([1]; Permeability (Papp ± SE)) of 19.3 ×10⁻⁶ cm/s, a Papp ([1]; Permeability (Papp)) of 19.3 ×10⁻⁶ cm/s and a logP ([2]; logP) of -5.98. For the same compound, the logD ([2]; pH 7.4, Log D (7.4)) was -3.68, the solubility [3] was over 10 mM and the Kd (mouse IL-17A) was 3700 nM.

For `CC[C@H](C)[C@H](NC(=O)[C@H](Cc1c[nH]c2ccccc12)NC(=O)[C@H](CC(=O)O)NC(=O)[C@H](Cc1c[nH]c2ccccc12)NC(=O)[C@H](CC(C)C)NC(=O)[C@H](CC(=O)O)NC(=O)[C@H](C)NC(=O)[C@@H]1CCCN1C(=O)[C@@H](NC(=O)[C@@H](NC(=O)[C@@H](NC(=O)[C@H](Cc1c[nH]cn1)NC(=O)[C@@H](NC(C)=O)C(C)C)C(C)C)[C@@H](C)O)[C@@H](C)CC)C(=O)N[C@@H](CC(N)=O)C(=O)N[C@@H](CCCCN)C(N)=O` [SEQ ID NO: 2] (Ac-VHVTIPADLWDWINK-NH2), the “Permeability (Papp ± SE)” value [4] was 28.86, the “permeability compared to high permeability standard Rhodamine B (in words)” value [4] was “good permeability” and the Papp ([1]; Permeability (Papp ± SE)) was 28.8 ×10⁻⁶ cm/s. For the same compound, the Papp ([1]; Permeability (Papp)) was 28.9 ×10⁻⁶ cm/s, the “IP (isoelectric point)” value [2] was 5.14 and the logP [2, 8] was 0.99. The logD [2, 9] was -0.56, the solubility [3] was over 10 mM and the “affinity for mouse IL-17A relative to SEQ ID NO: 1” value (mouse IL-17A; SPR) was 28 fold. The Kd (mouse IL-17A; immobilized mIL-17A, 62.5 to 1000 nM peptide, read-out: Kdeq (SPR)) was 130 nM, the IC50 [5] was under 200 nM and the “expression of the measured inflammatory cytokines (IL-8, IL-6, TNF-α)” value [6] was “does not change the expression; also recorded: does not show any effect”.

With `CC[C@H](C)[C@H](NC(=O)[C@H](Cc1c[nH]c2ccccc12)NC(=O)[C@H](CCC(=O)O)NC(=O)[C@H](Cc1ccc(O)cc1)NC(=O)[C@H](CC(C)C)NC(=O)[C@H](CC(=O)O)NC(=O)[C@H](C)NC(=O)[C@@H]1CCCN1C(=O)[C@@H](NC(=O)[C@@H](NC(=O)[C@@H](NC(=O)[C@H](CCSC)NC(=O)[C@@H](NC(C)=O)C(C)C)C(C)C)[C@@H](C)O)[C@@H](C)CC)C(=O)N[C@@H](CCC(=O)O)C(=O)N[C@@H](CCC(=O)O)C(N)=O` [SEQ ID NO: 18] (Ac-VMVTIPADLYEWIEE-NH2) the “secretion of IL-6” value [7] was “significantly reduce”, the “secretion of IL-17A” value [7] was “significantly reduce” and the “secretion of IL-23” value [7] was “significantly reduce”. The “secretion of MMP3” value [7] was “significantly reduce”, the “IP (isoelectric point)” value [2] was 3.55 and the logP [2, 8] was 1.89. The logD [2, 9] was -3.79, the solubility [3] was at least 0.05 mM and the IC50 [5] was under 400 nM. The cell viability (human TH17 cells) was “did not impair cell viability”.

For ixekizumab, the “patient population with severity of the disease reduced by at least 75% (PASI75)” value (IL-17A) is listed as 80%.

In the case of secukinumab, the “patient population with severity of the disease reduced by at least 75% (PASI75)” value (IL-17A) is given as 80%.
